Results taken from patent US10327423B2, “Antimicrobial compounds and compositions, and uses thereof” (Akeso Biomedical, Inc., priority 2014, dated 2019).
“Also recorded” adds a separate entry of the source.

Tests used:
[1] = tested on: Staphylococcus aureus ATCC 25923; experiment: Biofilm formation on plastic coated UV beads; format: cell-based; details: different concentrations of Fe-QA; T=24 h
Protocol: (§1) Bacteria (Enterococcus faecalis NCTC 12697, Staphylococcus epidermidis F1513 and Staphylococcus aureus ATCC 25923) were grown on Brain heart infusion (BHI) passaged to new medium either containing Fe-QA or alone. Growth suspensions were prepared at 0.0001 OD/ml and then allowed to grow at 37° C. under normal atmospheric conditions for 24 h in BHI with plastic coated UV beads (Lascells). […], 10 μl suspension was serially diluted 10 fold to 10-3, 10-4, 10-5, 10-6, 10-7, 10-8. For each dilution, 10 μl was spotted on BHI agar plates and colonies counted after 24 h. The beads were also removed washed in PBS before adding to 1 ml PBS. After vortex mixing, 10 μl of the cell suspension was serially diluted as above and cell counts carried out.
The effect of Fe-QA on biofilm formation by S. aureus was tested as described in the materials and methods of Example 1.

[2] = tested on: kanamycin resistant strain of Enteropathogenic E. coli EPEC (E2348/69); experiment: Growth of kanamycin resistant EPEC with Fe-QA and kanamycin (patch on growth plate, growth curve); format: cell-based, Escherichia coli
Protocol: A kanamycin resistance gene was introduced into the genome of Enteropathogenic E. coli EPEC, (E2348/69), genotype; Wildtype EPEC-O-17:H6 allowing the kanamycin resistant strain of EPEC to grow in the presence of a patch that has been immersed in kanamycin (at a concentration of 50 μg/mL). The kanamycin resistant strain of EPEC was then immersed in a patch in a solution of Fe-QA.

[3] = Growth performance of broilers challenged with Campylobacter dirty litter at day 20; format: in vivo, chicken (Ross 308 male broilers); details: treatment groups 3, 5, 6, 7 (FeQ) and 8 (FeTyr)
Protocol: A study was performed to evaluate growth promotion and reduction of Campylobacter carriage using FeQ and FeTyr in Ross 308 male broilers with 7 treatment groups. Each treatment group comprised four replicates of 10 birds per pen (40 birds/treatment group and 4 pens of 10 birds/treatment group), and there were 2 control groups and 5 test groups. All the test groups and one of the control groups were exposed at day 20 of the trial to dirty litter, which tested positive for Campylobacter. This method was used to provide a more natural method to Campylobacter challenge the birds. Thus there was a positive control where one treatment group was challenged with Campylobacter and one negative control group where the birds were not challenged, and five treatment groups that were all challenged with Campylobacter. The total number of birds used in the 7 treatment groups was 280. Treatment group 1 was a negative control where birds just received the commercial feed, and were not challenged with dirty litter containing Campylobacter. Treatment group 2 was the positive control where the birds received the commercial feed, and were challenged with dirty litter containing Campylobacter at day 20. Treatment group 3 received 0.22 g/L of FeQ in their drinking water and 0.22 g/Kg FeQ in their feed during the entire trial, and was challenged with dirty litter containing Campylobacter at day 20. Treatment group 5 received 0.22 g/L of FeQ in their drinking water during the entire trial, and was challenged with dirty litter containing Campylobacter at day 20. Treatment group 6 received 0.22 g/kg FeQ in their feed during the entire trial, and was challenged with dirty litter containing Campylobacter at day 20. Treatment group 7 received 0.022 g/L FeQ in their drinking water during the entire trial, and was challenged with dirty litter containing Campylobacter at day 20. Treatment group 8 received 0.02 g/L FeTyr in their drinking water during the entire trial, and was challenged with dirty litter containing Campylobacter at day 20. The FeTyr was pre-dissolved in DMSO, and diluted to provide a solution of 0.02 g/L of FeTyr in water. (An additional treatment group 4 was terminated due to solubility issues.) […]
The feeding program is show in Table 4. […] All birds were weighed individually and feed weigh backs recorded per pen at day 0, 11, 21, 24 and 42 days.
In order to minimize risk of cross-contamination, standard industry biosecurity measures were used including: disinfecting boots, changing overshoes and gloves between pens/treatments, entering Campylobacter negative pens before entering Campylobacter positive pens, and leaving adjacent pens empty. Daily health, culls, and mortality were recorded. All bird weights were recorded at 0, 11, 21, 24, 33 and 42 days. […]

[4] = tested on: Enterococcus faecalis NCTC 12697; experiment: Biofilm formation on plastic coated UV beads; format: cell-based; details: different concentrations of Fe-QA; T=24 h
Protocol: as §1

Compound: O=C1[O][Fe]23([O]C(=O)[C@]4(C[C@@H](O)[C@H](O)[C@H](O)C4)[O]2)([O]C(=O)[C@]2(C[C@@H](O)[C@H](O)[C@H](O)C2)[O]3)[O][C@@]12C[C@@H](O)[C@H](O)[C@H](O)C2 [FeQ, a complex of quinic acid with Fe III]
- biofilm formation on plastic coated UV beads [1]: inhibited
- rate of growth (growth curve) relative to kanamycin alone ([2]; kanamycin and Fe-QA): inhibited
- rate of growth (growth curve) ([2]; medium only containing Fe-QA): most rapid growth
- bacterial growth on plate around patch ([2]; patch immersed in Fe-QA alone): no impact on the growth; also recorded: no significant effect on bacterial growth
- bacterial growth on plate around patch ([2]; patch immersed in Fe-QA and kanamycin (50 μg/mL)): fail to grow
- ABW at day 42 versus positive control (challenged, untreated) [3]: performed better than the positive control
- MFCR at day 42 versus positive control (challenged, untreated) [3]: performed better than the positive control
- biofilm formation on plastic coated UV beads [4]: inhibited
